Measurements published in US7335640B2, “Administration of hypocretin-1 for treatment of narcolepsy” (The Regents of the University of California, priority 1999, dated 2008).
Entries after “also recorded” stand apart in the source; their conditions may differ.

Experiments:
[1] = in vivo; cited from earlier work
[2] = Hcrt-1 levels by solid-phase RIA, narcoleptic dog; type: in vivo
Experimental: In order to assess the effect of the intravenous Hcrt-1 injection on central levels of the compound, cerebrospinal fluid (CSF) and blood serum was collected and analyzed after infusion of Hcrt-1. In these studies, Hcrt-1 was injected intravenously as in the behavioral studies into two Doberman pinschers, one narcoleptic, and one control that had been anesthetized with Fluothane anesthesia. Saline was injected in a third dog, a non-narcoleptic control. Prior to injection and at 15, 30 min and one hour intervals after injection, CSF was collected from the cisterna magna with a spinal needle and then quickly frozen at −20. Hypocretin was extracted from 0.5-1 ml samples with reverse a phase SEP-PAK C18 column. An ^125I Hcrt-1 radioimmunoassay was used to measure levels in reconstituted aliquots (described below).
(§1) Prior to RIA, Hcrt-1 is extracted from the CSF or plasma sample. This is achieved by acidification of the sample with 1% TFA followed by loading onto a C18 Sep-Column, washing the column with 1% TFA, and eluting the peptide with 1% TFA/40% acetonitrile. The eluant is then dried down and re-suspended in RIA buffer ready for assay.
The 96-well plates are first coated with protein A(Sigma, binding capacity 9-11 mg of human IgG per mg) by adding 0.1 μg in 100 μl of 0.1M sodium bicarbonate, pH9, to each well. The plates are normally prepared in advance and can be stored for several weeks at 4° C. when tightly wrapped to prevent drying out. However, it is possible to use them after approximately 2 h incubation at room temperature. The protein A solution is then discarded and the plates washed 3 times in a wash buffer consisting of 0.15M K2HPO4, 0.2 mM ascorbic acid, 0.2% Tween 20, pH7.5 and blotted on a paper towel. Next, 200 μl of assay buffer (same as wash buffer plus 0.1% gelatin) is pipetted into each well and left at room temperature for 30 min. This step is included in an attempt to remove protein A bound with only low affinity to the plate which might otherwise dissociate at later stages in the assay thereby removing bound antibody and tracer. After dumping this solution and blotting, 50 μl of the appropriate concentration of antibody diluted with assay buffer is added to all but 4 wells. To these 4 wells are added assay buffer alone to provide an index of non-specific binding. The antibody dilution used is that which is pre-determined to produce 20-30% maximum binding in the assay. The wells are then left for 2 h at room temperature. […]
A 2 h pre-incubation period at room temperature then follows. […] Subsequently the contents of the wells are discarded and the wells washed 3 times with wash buffer and blotted prior to addition of Microscint 20 and counting in the Top Count plate reader. […]

[3] = tested on: genetically narcoleptic Doberman pinschers; test: health and behavior observed throughout the study; type: in vivo
Experimental: (§2) Six genetically narcoleptic Doberman pinschers (5 males and 1 female) served as subjects. We analyzed the effect of systemically administered Hcrt-1 on cataplexy with a modified food elicited cataplexy test (FECT). The effect of Hcrt-1 administration on sleep organization was determined using polygraph recording. The effect of Hcrt-1 administration on activity levels and the duration of sleep-waking states over the 24-hr period was determined with actigraphy.
(§3) One to 4 μg/kg of Hcrt-1 (orexin-A, #003-30, Phoenix Pharmaceuticals, Mountain View, Calif.) dissolved in normal saline (100 μg in 2 ml) was administered through the cephalic vein using a glass syringe. The glass syringe was pre-soaked in 1% BSA, rinsed in Milli-Q water, then dried at 60° C. prior to use. This treatment combined with the large volume of the dilutent used minimizes problems caused by the “stickiness” of the peptide. On control days, saline was administered in the same manner. Hcrt-1 or control injections were administered daily at the same time.

[4] = tested on: genetically narcoleptic Doberman pinschers; test: modified food elicited cataplexy test (FECT); type: in vivo; conditions: for cataplexy (number of cataplectic attacks): FECT 4 min after administration; for FECT time (time to consume the food) / cataplexy (number of cataplectic attacks / falls): vs saline control
Experimental: as §2, §3
FECT was done by introducing a bowl of soft food (Pedigree, by Kalkan) in the home cage and counting the number of cataplectic attacks (including hind limb collapse and total cataplexies in which all four limbs collapse and the whole body contacts the floor) and total time required to eat the food (FECT time). All the FECTs began 4 min after the administration of Hcrt-1 or saline.
(§4) Data were analyzed with ANOVA, followed by post-hoc comparisons using Newman-Keuls tests. Bonferroni t-tests were done to compare the effect of Hcrt-1 on sleep stages measured with polygraphic recording. One sample t-tests were performed to test the significance of number of cataplectic attacks and FECT time (expressed as a percentage of baseline) after Hcrt-1 within each dose.

Hcrt-1 antiserum = test: solid-phase radioimmunoassay (RIA) for Hcrt-1; type: binding; conditions: competition with 125I-labeled Hcrt-1
Description: Furthermore, sensitivity is increased over that obtained with more traditional methods using identical antibodies and assay volumes. In this system, the antibody is immobilized onto the surface of 96-well Immulon II-coated plates (Dynatech) through attachment of the constant region of the immunoglobulin (Ig) molecule to the purified bacterial wall protein-protein A (the use of this protein greatly increases the capacity of the wells for antibody thereby avoiding the necessity for antibody purification). […] After a pre-determined incubation period separation of bound from free tracer peptide is accomplished by simply pouring out the contents of the wells and washing with buffer. For example, the individual wells of a 96-well plate containing Ab-bound tracer peptide are then physically separated and counted in a gamma counter. […]
The Hcrt-1, iodinated Hcrt-1, and Hcrt-1 antiserum were obtained from Phoenix Pharmaceuticals, Inc. (530 Harbor Blvd, Belmont, Calif.). […] This enables direct reading of radioactivity in a Top Count plate reader (Packard) without the requirement to separate out individual wells.
The 96-well plates are first coated with protein A(Sigma, binding capacity 9-11 mg of human IgG per mg) by adding 0.1 μg in 100 μl of 0.1M sodium bicarbonate, pH9, to each well. […] The antibody dilution used is that which is pre-determined to produce 20-30% maximum binding in the assay. […]

[5] = tested on: genetically narcoleptic Doberman pinschers; test: polygraphic recording of sleep-wake parameters; type: in vivo
Experimental: as §2
One to 4 μg/kg of Hcrt-1 (orexin-A, #003-30, Phoenix Pharmaceuticals, Mountain View, Calif.) dissolved in normal saline (100 μg in 2 ml) was administered through the cephalic vein using a glass syringe. The glass syringe was pre-soaked in 1% BSA, rinsed in Milli-Q water, then dried at 60° C. prior to use. This treatment combined with the large volume of the dilutent used minimizes problems caused by the “stickiness” of the peptide. […]
Polygraphic recording. […] Polygraphic variables were recorded for 4 hrs after Hcrt-1 (3 μg/kg) or saline injection.
as §4

[6] = tested on: genetically narcoleptic Doberman pinschers; test: actigraphy of sleep-wake periods and activity level; type: in vivo
Experimental: as §2, §3
The effects of Hcrt-1 on sleep-wake periods were monitored continuously for 24 hrs/day with collar mounted actigraphs (Actiwatch, Mini Mitter Inc, Sundriver, Oreg.) while the animals remained in their home dog runs. Actigraphs were secured to a neck collar that was placed on the dogs throughout the period of study. Data were downloaded to a PC through an inductively coupled Actiwatch reader and further analyzed by a program of our design. The program could integrate total numbers of movements above a preset amplitude for a measurement of total level of activity in 5 minutes epochs. For analysis of sleep state, actigraphs were first calibrated by placing them on an animal instrumented for conventional polygraphic recording. A threshold was determined for discriminating polygraphically defined waking and sleep in 30-sec epochs. The durations of sleep periods were then counted and tabulated by computer. The sleep-wake bouts measured by actigraph correlated well with hypnograms obtained from polygraphic recording (r=0.84, p<0.001).
as §4
Actigraph measurements were used to calculate the duration of sleep and waking states for the nights following injection. First, comparisons of actigraphic measurements and polygraphically recorded sleep states were made and used to determine thresholds for distinguishing sleep and wake periods. Then wake and sleep state periods were quantified starting 2 hrs following administration. […] These effects lasted for more than 24 hrs (p<0.01, F=5.56, df=3, 15 and p<0.002, F=8.58, df=3, 15 for sleep and wake periods respectively). The frequency of sleep and wake bouts was reduced (p<0.05, F=3.35, df=3, 15 and p<0.05, F=3.40, df=3, 15, respectively) (FIG. 2b, 2c).

[7] = Hcrt-1 levels by solid-phase RIA, normal human; type: in vivo
Experimental: as §1
The 96-well plates are first coated with protein A(Sigma, binding capacity 9-11 mg of human IgG per mg) by adding 0.1 μg in 100 μl of 0.1M sodium bicarbonate, pH9, to each well. The plates are normally prepared in advance and can be stored for several weeks at 4° C. when tightly wrapped to prevent drying out. However, it is possible to use them after approximately 2 h incubation at room temperature. The protein A solution is then discarded and the plates washed 3 times in a wash buffer consisting of 0.15M K2HPO4, 0.2 mM ascorbic acid, 0.2% Tween 20, pH7.5 and blotted on a paper towel. Next, 200 μl of assay buffer (same as wash buffer plus 0.1% gelatin) is pipetted into each well and left at room temperature for 30 min. This step is included in an attempt to remove protein A bound with only low affinity to the plate which might otherwise dissociate at later stages in the assay thereby removing bound antibody and tracer. After dumping this solution and blotting, 50 μl of the appropriate concentration of antibody diluted with assay buffer is added to all but 4 wells. To these 4 wells are added assay buffer alone to provide an index of non-specific binding. The antibody dilution used is that which is pre-determined to produce 20-30% maximum binding in the assay. The wells are then left for 2 h at room temperature.
Standard solutions of Hcrt-1 are prepared in quadruplet ranging from 0.1 to 50 fmol in 50 μl. These standards (plus four blanks) are made up in RIA buffer. All dilutions are carried out in polypropylene tubes to minimize loss due to ‘sticking’. The contents of each tube are then transferred to the assay wells following dumping of the antibody solution, washing 3 times with wash buffer and blotting.
A 2 h pre-incubation period at room temperature then follows. At the end of this time 50 μl of assay buffer containing approximately 5,000 CPM of ^125I-labeled tracer peptide is added to each well and the plate left to incubate overnight at 4° C. (this final incubation step can be reduced to approx. 2 h with only slight loss of sensitivity). Subsequently the contents of the wells are discarded and the wells washed 3 times with wash buffer and blotted prior to addition of Microscint 20 and counting in the Top Count plate reader. Results from the Solid-Phase Radioimmunoassay (RIA) for Hypocretin (Hcrt-1) are shown below in Table I: […]

REM sleep = conditions: intracerebroventricular administration; cited from earlier work
[8] = 3 μg/kg, representative actigraph record
[9] = single dose, from 2 hrs after administration

Substance: iodinated Hcrt-1: iodinated Hcrt-1 reported in the literature to pass the BBB (QPLPDCCRQKTCSCRLYELLHGAGNHAAGILTL; Orexin-A iodinated; UniProt O43612 34-66, looked up)
- passage of the BBB [1]: passes the BBB

Substance: Hcrt-1: Hcrt-1 (orexin-A, #003-30, Phoenix Pharmaceuticals) peptide dissolved in normal saline (QPLPDCCRQKTCSCRLYELLHGAGNHAAGILTL; Orexin-A; UniProt O43612 34-66, looked up)
- Mean level ([2]; Blood serum): 0.011 nM
- Range in levels ([2]; Blood serum): 5 to 16 fmol/mL
- Mean level ([2]; Cerebrospinal fluid): 0.053 nM
- Range in levels ([2]; Cerebrospinal fluid): 26 to 140 fmol/mL
- feeding / rate of food consumption ([3]; period of cataplexy suppression after repeated doses): normal feeding during FECTs; also recorded: consumed their food at a normal rate
- abnormal behaviors ([3]; throughout the study): no grooming, “wet dog shakes” or other abnormal behaviors
- general health of the dogs ([3]; throughout the study): excellent health
- cataplexy (number of cataplectic attacks) ([4]; 1 μg/kg intravenous): did not produce any change in cataplexy; also recorded: did not affect cataplexy
- cataplexy (number of cataplectic attacks) ([4]; 2 μg/kg intravenous): did not produce any change in cataplexy; also recorded: did not affect cataplexy
- FECT time (time to consume the food) ([4]; 3 μg/kg intravenous): reduction in the FECT time; also recorded: significant decrease
- cataplexy (number of cataplectic attacks / falls) ([4]; 3 μg/kg intravenous): reduction in cataplexy; also recorded: significant decrease in the number of falls
- FECT time (time to consume the food) ([4]; 4 μg/kg intravenous): significantly increased the FECT time
- cataplexy (number of cataplectic attacks / falls) ([4]; 4 μg/kg intravenous): significantly increased the severity of cataplexy; also recorded: significantly increased the number of falls
- effect on cataplexy across doses ([4]; 1 to 4 μg/kg intravenous, ANOVA): significant effect on cataplexy in a dose dependent manner; also recorded: dose dependent change in cataplexy
- period without any cataplexy after repeated doses ([4]; after 3-5 doses, two of the 3 dogs treated): ≥ 3 days
- time taken to finish the food during the period without cataplexy ([4]; after repeated doses): significantly reduced
- period over which severity of cataplexy returned to pretreatment levels ([4]; after repeated doses, both dogs): 3 to 4 days
- cataplexy after five doses (FIG. 1D) ([4]; five doses, more severely affected dog): complete suppression of cataplexy during the FECT observed on 3 tests given every other day over a 6 day period
- cataplexy after three doses (FIG. 1C) ([4]; three doses, one dog): complete suppression of cataplexy for three consecutive days
- IC50 value for this Hcrt-1 assay (Hcrt-1 antiserum): 2 fmol
- REM sleep ([5]; 3 μg/kg, 4 hr post-injection period, vs saline): significant reduction; also recorded: significant decrease in REM sleep
- nonREM sleep ([5]; after Hcrt-1 administration): without change
- motor activity ([6]; 3 μg/kg, after injection, vs saline): increased motor activity; also recorded: increase of motor activity was statistically significant at 0-30 and 30-60 minutes
- onset of increase in motor activity after injection [6, 8]: ≤ 5 min
- persistence of increase in motor activity [6, 8]: 60 min
- sleep consolidation (sleep bout length) ([6]; periods of cataplexy suppression following repeated doses, vs baseline): consolidated (increased sleep bout length)
- frequency of sleep bouts ([6]; single dose): reduced; also recorded: decrease in frequency
- frequency of wake bouts ([6]; single dose): reduced
- how long the effects on sleep and wake period duration lasted ([6]; single dose): more than 24 hrs
- mean duration of sleep periods (sleep bout duration) [6, 9]: increased; also recorded: significant increase in sleep bout duration
- mean duration of wake periods [6, 9]: increased
- total duration of sleep ([6]; vs pre-drug levels): increased after Hcrt-1 as compared to pre-drug levels, but not significantly
- Mean level ([7]; Blood serum): 0.01 nM
- Range in levels ([7]; Blood serum): 8 to 14 fmol/mL
- Mean level ([7]; Cerebrospinal fluid): 0.062 nM
- Range in levels ([7]; Cerebrospinal fluid): 21 to 203 fmol/mL
- REM sleep (REM sleep): selective suppression of REM sleep
